Among the data in patent US10556914B2, “Substituted isoxazolopyridazinones and isothiazolopyridazinones and methods of use” (AbbVie Inc., priority 2015, dated 2020) are EC50 values, retold here.

A value given as a limit tells only on which side of the number the result lay.

Sequence of GABA-B receptor (Q9Z0U4 17-960): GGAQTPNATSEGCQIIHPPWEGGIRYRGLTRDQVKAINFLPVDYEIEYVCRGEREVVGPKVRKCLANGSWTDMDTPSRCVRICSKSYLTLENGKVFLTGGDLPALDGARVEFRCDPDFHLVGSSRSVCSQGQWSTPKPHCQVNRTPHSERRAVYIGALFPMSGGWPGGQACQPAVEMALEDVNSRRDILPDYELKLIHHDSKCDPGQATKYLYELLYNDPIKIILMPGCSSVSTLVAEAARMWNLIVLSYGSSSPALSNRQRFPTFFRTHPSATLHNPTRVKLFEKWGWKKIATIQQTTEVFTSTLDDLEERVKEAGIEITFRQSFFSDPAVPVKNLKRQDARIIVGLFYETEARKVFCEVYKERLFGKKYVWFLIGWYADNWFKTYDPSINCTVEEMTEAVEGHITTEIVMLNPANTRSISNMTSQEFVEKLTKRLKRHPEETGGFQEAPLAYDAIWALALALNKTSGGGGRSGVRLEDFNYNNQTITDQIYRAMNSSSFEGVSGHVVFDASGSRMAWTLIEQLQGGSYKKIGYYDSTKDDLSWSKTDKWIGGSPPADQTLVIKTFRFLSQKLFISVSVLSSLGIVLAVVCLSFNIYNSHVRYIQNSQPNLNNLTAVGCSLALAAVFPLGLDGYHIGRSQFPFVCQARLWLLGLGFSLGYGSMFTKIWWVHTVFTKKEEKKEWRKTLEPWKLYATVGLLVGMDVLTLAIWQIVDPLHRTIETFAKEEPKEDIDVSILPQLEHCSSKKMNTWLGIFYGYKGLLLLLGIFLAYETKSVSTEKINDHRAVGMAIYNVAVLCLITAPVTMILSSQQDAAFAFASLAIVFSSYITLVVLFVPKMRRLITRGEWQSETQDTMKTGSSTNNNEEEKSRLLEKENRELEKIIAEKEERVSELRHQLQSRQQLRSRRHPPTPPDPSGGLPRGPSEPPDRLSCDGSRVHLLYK
Sequence of GABA-B receptor (O88871 41-940): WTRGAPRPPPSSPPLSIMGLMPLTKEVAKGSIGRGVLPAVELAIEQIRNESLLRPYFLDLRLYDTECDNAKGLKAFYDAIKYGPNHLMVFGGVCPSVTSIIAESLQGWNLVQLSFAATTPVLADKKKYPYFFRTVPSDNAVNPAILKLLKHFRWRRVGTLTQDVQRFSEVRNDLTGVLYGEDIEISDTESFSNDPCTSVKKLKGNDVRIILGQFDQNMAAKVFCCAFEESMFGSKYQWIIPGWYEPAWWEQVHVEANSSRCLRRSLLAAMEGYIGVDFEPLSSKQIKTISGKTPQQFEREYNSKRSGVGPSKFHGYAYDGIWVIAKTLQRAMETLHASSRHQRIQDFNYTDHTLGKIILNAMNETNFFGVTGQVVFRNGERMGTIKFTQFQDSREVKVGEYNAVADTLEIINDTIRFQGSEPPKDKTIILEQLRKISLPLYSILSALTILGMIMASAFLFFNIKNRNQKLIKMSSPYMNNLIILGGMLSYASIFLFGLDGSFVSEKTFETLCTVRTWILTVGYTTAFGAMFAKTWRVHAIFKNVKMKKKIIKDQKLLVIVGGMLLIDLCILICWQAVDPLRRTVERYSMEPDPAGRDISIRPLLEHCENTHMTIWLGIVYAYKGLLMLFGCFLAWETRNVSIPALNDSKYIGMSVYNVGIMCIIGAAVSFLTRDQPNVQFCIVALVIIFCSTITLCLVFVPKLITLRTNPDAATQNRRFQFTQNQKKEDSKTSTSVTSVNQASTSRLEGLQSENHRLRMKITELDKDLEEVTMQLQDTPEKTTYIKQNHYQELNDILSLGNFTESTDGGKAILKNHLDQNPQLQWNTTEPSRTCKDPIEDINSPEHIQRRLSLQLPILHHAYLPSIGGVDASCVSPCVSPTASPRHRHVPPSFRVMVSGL

The target in this assay is GABA-B receptor (Rattus norvegicus (Rat), UniProt O88871+Q9Z0U4). The experiment in a line: [35S]GTPgS Binding Assay (rat brain cortex membranes, native receptor). The settings on record: rat cortical membranes; in the presence of 1 μM GABA (EC25); basal binding 0%, maximal binding (1 mM GABA) 100%. It counts as biochemical. On the procedure:
Preparation of Rat Brain Membranes for Native Receptor Assays
Membranes from rat brain cortex were prepared as described in detail by Olpe et al. and stored at concentrations of 1.66 mg/mL protein at −80° C. until required. (Olpe, H.-R, et al. Eur J Pharmacol 1990; 187: 27-38).
[^35S]GTPgS Binding Assay
The samples were incubated at room temperature for 60 minutes on a shaker. The incubation was stopped by rapid vacuum filtration over glass-fiber filter plates (UniFilter-96 well, GF/B membrane plates, PerkinElmer) using a 96-well plate harvester (TOMTEK© Harvester). The UniFilter plate was washed five times with ice-cold wash buffer (50 mM Tris-HCl buffer, pH 7.7, 10 mM MgCl2, and 100 mM NaCl. After filtration the plate was dried for 90 minutes at 55° C. The plates were closed on the bottom with black sealing membranes, and liquid scintillation cocktail (35 μL, Betaplate Scint, PerkinElmer) was added to each well. After sealing the top of the plate, an additional incubation step of 90 minutes at room temperature followed before measuring the plate. The amount of membrane-bound [^35S]GTPgS was measured using a 96-well plate reader (Microbeta®, PerkinElmer). Nonspecific binding was measured in the presence of unlabeled 10 μM of GTPgS (Millipore) and without GABA. Basal binding was measured in the absence of 1 μM GABA, and maximal binding was measured in the presence of GABA using 1 mM GABA concentrations.
Data analysis. The concentration-response curves of compounds of the present disclosure in the presence of EC25 of GABA-B receptor agonist were generated using the GraphPad Prism® program (GraphPad Software, San Diego, Calif.). Data was normalized using basal binding as 0% and maximal binding as 100%. The curves were fitted by nonlinear regression allowing determination of EC50 values from sigmoidal dose-response curves. Each curve was performed using triplicate sample per date point and 10 concentrations.
A general note: GTPγS resists hydrolysis and so accumulates on activated G proteins.
Consider “7-(4-fluorophenyl)-3-methyl-5-(pyridin-4-ylmethyl)[1,2]oxazolo[4,5-d]pyridazin-4(5H)-one [Example 74]”, for which the EC50 (in general, the concentration needed to bring the measured effect to its halfway point) worked out at 3410 nM. The figure for `Cc1nn([C@@H](C)c2ccc(Cl)cc2)c(=O)c2c(C)noc12` (single isomer, unassigned) [Example 31] is 1810 nM; for `Cc1nn([C@H](C)c2ccc(Cl)cc2)c(=O)c2c(C)noc12` (single isomer, unassigned) [Example 58] it is over 10000 nM. Take `CCc1nn([C@H](c2ccccc2)c2ccc(Cl)cc2)c(=O)c2c(CC)noc12` (single isomer, unassigned) [Example 75]: the EC50 came out at 1760 nM.

Regarding `CCc1nn([C@@H](c2ccccc2)c2ccc(Cl)cc2)c(=O)c2c(CC)noc12` (single isomer, unassigned) [Example 89], the 50% effective concentration (EC50) was 1390 nM. With `COc1ccc(NC(C)=O)cc1-c1nn([C@@H](C)c2ccc(Cl)cc2)c(=O)c2c(C3CC3)noc12` [Example 1, N-(3-{5-[(1S)-1-(4-chlorophenyl)ethyl]-3-cyclopropyl-4-oxo-4,5-dihydro[1,2]oxazolo[4,5-d]pyridazin-7-yl}-4-methoxyphenyl)acetamide], the half-maximal effective concentration (EC50) amounted to 51 nM. The result for `COc1ccc(-c2nn(Cc3ccc(Cl)cc3)c(=O)c3c(C)noc23)cc1` [Example 2, 5-(4-chlorobenzyl)-7-(4-methoxyphenyl)-3-methyl[1,2]oxazolo[4,5-d]pyridazin-4(5H)-one] reads over 10000 nM. With `COc1ccc(NC(C)=O)cc1-c1nn([C@H](C)c2ccc(Cl)cc2)c(=O)c2c(C3CC3)noc12` [Example 3, N-(3-{5-[(1R)-1-(4-chlorophenyl)ethyl]-3-cyclopropyl-4-oxo-4,5-dihydro[1,2]oxazolo[4,5-d]pyridazin-7-yl}-4-methoxyphenyl)acetamide], the EC50 is over 10000 nM. As for `Cc1noc2c(-c3cc(F)nc(F)c3)nn(C(C)c3ccc(Cl)cc3)c(=O)c12` (centres unmarked) [Example 4, 5-[1-(4-chlorophenyl)ethyl]-7-(2,6-difluoropyridin-4-yl)-3-methyl[1,2]oxazolo[4,5-d]pyridazin-4(5H)-one], the concentration for a half-maximal effect (EC50) turned out to be 1660 nM. The result for `Cc1noc2c(-c3cc(Cl)ccc3N)nn(C(C)c3ccc(Cl)cc3)c(=O)c12` (centres unmarked) [Example 6, 7-(2-amino-5-chlorophenyl)-5-[1-(4-chlorophenyl)ethyl]-3-methyl[1,2]oxazolo[4,5-d]pyridazin-4(5H)-one] reads 1960 nM.

With `Cc1noc2c(-c3cccnc3Cl)nn(C(C)c3ccc(Cl)cc3)c(=O)c12` (centres unmarked) [Example 7, 5-[1-(4-chlorophenyl)ethyl]-7-(2-chloropyridin-3-yl)-3-methyl[1,2]oxazolo[4,5-d]pyridazin-4(5H)-one], the EC50 was 600 nM.

For the compound `CC(=O)Nc1cc(-c2nn(Cc3ccc(Cl)cc3)c(=O)c3c(C)noc23)ccc1F` [Example 8], the concentration for a half-maximal effect (EC50) came out at 2110 nM. Take `COc1ccc(OC)c(-c2nn(CCc3ccc(Cl)cc3)c(=O)c3c(C)noc23)c1` [Example 10, 5-[2-(4-chlorophenyl)ethyl]-7-(2,5-dimethoxyphenyl)-3-methyl[1,2]oxazolo[4,5-d]pyridazin-4(5H)-one]: the concentration giving a half-maximal response (EC50) was 1060 nM.

For the compound `Cc1noc2c(-c3cc(C(F)(F)F)ccc3N)nn(C(C)c3ccc(Cl)cc3)c(=O)c12` (centres unmarked) [Example 11, 7-[2-amino-5-(trifluoromethyl)phenyl]-5-[1-(4-chlorophenyl)ethyl]-3-methyl[1,2]oxazolo[4,5-d]pyridazin-4(5H)-one], the EC50 was over 10000 nM.

Regarding `Cc1noc2c(-c3ccc4cc[nH]c4c3)nn(C(C)c3ccc(Cl)cc3)c(=O)c12` (centres unmarked) [Example 12, 5-[1-(4-chlorophenyl)ethyl]-7-(1H-indol-6-yl)-3-methyl[1,2]oxazolo[4,5-d]pyridazin-4(5H)-one], the half-maximal effective concentration (EC50) is 347 nM. Turning to `Cc1noc2c(-c3ccccc3N)nn(C(C)c3ccc(Cl)cc3)c(=O)c12` (centres unmarked) [Example 14, 7-(2-aminophenyl)-5-[1-(4-chlorophenyl)ethyl]-3-methyl[1,2]oxazolo[4,5-d]pyridazin-4(5H)-one], the concentration giving a half-maximal response (EC50) amounted to 2130 nM. As to `Cc1ccc(O)cc1-c1nn(C(C)c2ccc(Cl)cc2)c(=O)c2c(C)noc12` (centres unmarked) [Example 16, 5-[1-(4-chlorophenyl)ethyl]-7-(5-hydroxy-2-methylphenyl)-3-methyl[1,2]oxazolo[4,5-d]pyridazin-4(5H)-one], the EC50 was 222 nM. The result for `CC(=O)Nc1ccc(C)c(-c2nn(C(C)c3ccc(Cl)cc3)c(=O)c3c(C)noc23)c1` (centres unmarked) [Example 18, N-(3-{5-[1-(4-chlorophenyl)ethyl]-3-methyl-4-oxo-4,5-dihydro[1,2]oxazolo[4,5-d]pyridazin-7-yl}-4-methylphenyl)acetamide] reads 389 nM; that for `Cc1noc2c(-c3ccc(F)cc3)nn(Cc3ccc(C(F)(F)F)cc3)c(=O)c12` [Example 19, 7-(4-fluorophenyl)-3-methyl-5-[4-(trifluoromethyl)benzyl][1,2]oxazolo[4,5-d]pyridazin-4(5H)-one], 1580 nM. Take `COc1ccc(OC)c(-c2nn(C(C)c3ccc(Cl)cc3)c(=O)c3c(C)noc23)c1` (centres unmarked) [Example 21, 5-[1-(4-chlorophenyl)ethyl]-7-(2,5-dimethoxyphenyl)-3-methyl[1,2]oxazolo[4,5-d]pyridazin-4(5H)-one]: the EC50 turned out to be 229 nM. `Cc1noc2c(-c3cncc(F)c3)nn(C(C)c3ccc(Cl)cc3)c(=O)c12` (centres unmarked) [Example 22, 5-[1-(4-chlorophenyl)ethyl]-7-(5-fluoropyridin-3-yl)-3-methyl[1,2]oxazolo[4,5-d]pyridazin-4(5H)-one]: the concentration for a half-maximal effect (EC50) was determined as 2690 nM. As for `Cc1noc2c(-c3cccc(F)c3)nn(Cc3ccc(Cl)cc3)c(=O)c12` [Example 23, 5-(4-chlorobenzyl)-7-(3-fluorophenyl)-3-methyl[1,2]oxazolo[4,5-d]pyridazin-4(5H)-one], the concentration giving a half-maximal response (EC50) was over 10000 nM. As to `Cc1noc2c(-c3cccc(NS(C)(=O)=O)c3)nn(C(C)c3ccc(Cl)cc3)c(=O)c12` (centres unmarked) [Example 24, N-(3-{5-[1-(4-chlorophenyl)ethyl]-3-methyl-4-oxo-4,5-dihydro[1,2]oxazolo[4,5-d]pyridazin-7-yl}phenyl)methanesulfonamide], the EC50 is 1850 nM. Consider `COCc1noc2c(-c3cccc(NC(C)=O)c3)nn(Cc3ccc(Cl)cc3)c(=O)c12` [Example 27, N-{3-[5-(4-chlorobenzyl)-3-(methoxymethyl)-4-oxo-4,5-dihydro[1,2]oxazolo[4,5-d]pyridazin-7-yl]phenyl}acetamide], for which the half-maximal effective concentration (EC50) came out at 3200 nM. For `Cc1noc2c(-c3ccc(F)cc3)nn(Cc3ccc(Cl)c(C(F)(F)F)c3)c(=O)c12` [Example 28, 5-[4-chloro-3-(trifluoromethyl)benzyl]-7-(4-fluorophenyl)-3-methyl[1,2]oxazolo[4,5-d]pyridazin-4(5H)-one], the concentration for a half-maximal effect (EC50) worked out at 3470 nM. With `CC(=O)Nc1cccc(-c2nn([C@H](C)c3ccc(Cl)cc3)c(=O)c3c(C)noc23)c1` [Example 34, N-(3-{5-[(1R)-1-(4-chlorophenyl)ethyl]-3-methyl-4-oxo-4,5-dihydro[1,2]oxazolo[4,5-d]pyridazin-7-yl}phenyl)acetamide], the EC50 came to 4810 nM. Regarding `CC(=O)Nc1ccc(C)c(-c2nn([C@H](C)c3ccc(C(F)(F)F)cc3)c(=O)c3c(C)noc23)c1` [Example 35, N-[4-methyl-3-(3-methyl-4-oxo-5-{(1R)-1-[4-(trifluoromethyl)phenyl]ethyl}-4,5-dihydro[1,2]oxazolo[4,5-d]pyridazin-7-yl)phenyl]acetamide], the half-maximal effective concentration (EC50) worked out at 562 nM. For the compound `CCc1noc2c(-c3cc(OC)ccc3OC)nn(Cc3ccc(Cl)cc3)c(=O)c12` [Example 36, 5-(4-chlorobenzyl)-7-(2,5-dimethoxyphenyl)-3-ethyl[1,2]oxazolo[4,5-d]pyridazin-4(5H)-one], the EC50 was 895 nM. For `COc1ccc(-c2nn(Cc3ccc(F)c(C(F)(F)F)c3)c(=O)c3c(C)noc23)c(OC)c1` [Example 37, 7-(2,4-dimethoxyphenyl)-5-[4-fluoro-3-(trifluoromethyl)benzyl]-3-methyl[1,2]oxazolo[4,5-d]pyridazin-4(5H)-one], the EC50 is 3670 nM.

Regarding `COc1ccc(C(=O)N(C)C)cc1-c1nn(C(C)c2ccc(Cl)cc2)c(=O)c2c(C)noc12` (centres unmarked) [Example 38], the EC50 is 643 nM. Take `COc1ccc(NC(C)=O)cc1-c1nn(C(C)c2ccc(Cl)cc2)c(=O)c2c(C)noc12` (centres unmarked) [Example 39, N-(3-{5-[1-(4-chlorophenyl)ethy]-3-methyl-4-oxo-4,5-dihydro[1,2]oxazolo[4,5-d]pyridazin-7-yl}-4-methoxyphenyl)acetamide]: the EC50 is 105 nM. On to `COc1ccc(NC(C)=O)cc1-c1nn([C@H](C)c2ccc(Cl)cc2)c(=O)c2c(C)noc12` [Example 40, N-(3-{5-[(1R)-1-(4-chlorophenyl)ethyl]-3-methyl-4-oxo-4,5-dihydro[1,2]oxazolo[4,5-d]pyridazin-7-yl}-4-methoxyphenyl)acetamide], for which the concentration giving a half-maximal response (EC50) was over 10000 nM.
